Experimental data reported in PubChem BioAssay AID330 (DTP/NCI, 2004).
Where “and” joins values, the source holds several entries; their conditions need not be identical. Equal entries are not always repeated. Inconclusive results and toxic doses are left out.

Test system: P388 leukemia ip, CD2F1 mice, survival T/C
Assay: NCI In Vivo Anticancer Drug Screen. Data for tumor model P388 Leukemia (intraperitoneal) in CD2F1 (CDF1) mice
Conditions: endpoint: median survival time, higher = longer survival
In short: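 Mice carrying the transplanted tumor received test compound or vehicle. Survival was recorded in each group, and the value is the treated-group measurement divided by that of the vehicle-treated control group.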

[1] = dose: 50.0 mg/kg/injection, schedule: Q01DX005 (ip), vehicle: Klucel (hydroxypropylcellulose) (HPC)
[2] = dose: 100.0 mg/kg/injection, schedule: Q01DX005 (ip), vehicle: Klucel (hydroxypropylcellulose) (HPC)
[3] = dose: 200.0 mg/kg/injection, schedule: Q01DX005 (ip), vehicle: Klucel (hydroxypropylcellulose) (HPC)
[4] = dose: 60.0 mg/kg/injection, schedule: Q01DX005 (ip), vehicle: saline with Tween-80
[5] = dose: 120.0 mg/kg/injection, schedule: Q01DX005 (ip), vehicle: saline with Tween-80
[6] = dose: 240.0 mg/kg/injection, schedule: Q01DX005 (ip), vehicle: saline with Tween-80
[7] = dose: 6.25 mg/kg/injection, schedule: Q01DX009 (ip), vehicle: Klucel (hydroxypropylcellulose) (HPC)
[8] = dose: 12.5 mg/kg/injection, schedule: Q01DX009 (ip), vehicle: Klucel (hydroxypropylcellulose) (HPC)
[9] = dose: 25.0 mg/kg/injection, schedule: Q01DX009 (ip), vehicle: Klucel (hydroxypropylcellulose) (HPC)
[10] = dose: 50.0 mg/kg/injection, schedule: Q01DX009 (ip), vehicle: Klucel (hydroxypropylcellulose) (HPC)
[11] = dose: 25.0 mg/kg/injection, schedule: Q04DX002 (ip), vehicle: saline
[12] = dose: 12.5 mg/kg/injection, schedule: Q01DX009 (ip), vehicle: saline with Tween-80
[13] = dose: 25.0 mg/kg/injection, schedule: Q01DX009 (ip), vehicle: saline with Tween-80
[14] = dose: 50.0 mg/kg/injection, schedule: Q01DX009 (ip), vehicle: saline with Tween-80
[15] = dose: 25.0 mg/kg/injection, schedule: Q01DX005 (ip), vehicle: saline with Tween-80
[16] = dose: 50.0 mg/kg/injection, schedule: Q01DX005 (ip), vehicle: saline with Tween-80
[17] = dose: 60.0 mg/kg/injection, schedule: Q01DX005 (ip), vehicle: Klucel (hydroxypropylcellulose) (HPC)
[18] = dose: 120.0 mg/kg/injection, schedule: Q01DX005 (ip), vehicle: Klucel (hydroxypropylcellulose) (HPC)
[19] = dose: 240.0 mg/kg/injection, schedule: Q01DX005 (ip), vehicle: Klucel (hydroxypropylcellulose) (HPC)
[20] = dose: 100.0 mg/kg/injection, schedule: Q01DX009 (ip), vehicle: Klucel (hydroxypropylcellulose) (HPC)
[21] = dose: 100.0 mg/kg/injection, schedule: Q01DX005 (ip), vehicle: saline with Tween-80

CC[C@H]1OC(=O)[C@H](C)[C@@H](OC2CC(C)(OC)C(O)C(C)O2)[C@H](C)[C@@H](OC2OC(C)CC(N(C)C)C2OC(=O)CCC2CCCC2)[C@](C)(O)C[C@@H](C)C(=O)[C@H](C)[C@@H](O)[C@]1(C)O (stereo partly drawn)
T/C [1]: 96 % of control
T/C [2]: 100 % of control
T/C [3]: 93 % of control

O=c1c(Cc2ccc(Cl)cc2)coc2ccccc12
T/C [4]: 94 % of control
T/C [5]: 94 % of control
T/C [6]: 101 % of control

CN(C)c1ccc2c(N(C)C)cc(N(C)C)[n+](C)c2c1
T/C (dose: 0.78 mg/kg/injection, schedule: Q01DX009 (ip), vehicle: distilled water + Tween-80 + alcohol): 106 % of control
T/C (dose: 1.56 mg/kg/injection, schedule: Q01DX009 (ip), vehicle: distilled water + Tween-80 + alcohol): 115 % of control

COC1CC(O)OC1C(NC(C)=O)SC12CC3CC(CC(C3)C1)C2 (stereo not drawn)
T/C (dose: 100.0 mg/kg/injection, schedule: Q04DX003 (ip), vehicle: Klucel (hydroxypropylcellulose) (HPC)): 104 % of control
T/C (dose: 200.0 mg/kg/injection, schedule: Q04DX003 (ip), vehicle: Klucel (hydroxypropylcellulose) (HPC)): 106 % of control
T/C (dose: 400.0 mg/kg/injection, schedule: Q04DX003 (ip), vehicle: Klucel (hydroxypropylcellulose) (HPC)): 104 % of control

O=C(/C=C/c1ccccc1)NC1C=Nc2ccccc2NC1=O (stereo not drawn)
T/C [4]: 92 % of control
T/C [5]: 92 % of control
T/C [6]: 99 % of control

C=C1CC(O)C2C(=C)C(=O)OC2C2C(C)C(=O)CC12 (stereo not drawn)
T/C [7]: 112 % of control
T/C [8]: 107 % of control
T/C [9]: 115 % of control
T/C [10]: 116 % of control

CN(C)C(=O)c1cc(C(=O)N(C)C)cc2cccc-2c1
T/C [11]: 102 % of control
T/C (dose: 50.0 mg/kg/injection, schedule: Q04DX002 (ip), vehicle: saline): 98 % of control
T/C (dose: 100.0 mg/kg/injection, schedule: Q04DX002 (ip), vehicle: saline): 99 % of control and 97 % of control

Cc1c[nH]c2nc(C)n(-c3ccccc3F)c(=N)c12
T/C [1]: 99 % of control
T/C [2]: 91 % of control

c1ccc2c3c([nH]c2c1)CCc1cncnc1-3
T/C [1]: 91 % of control and 97 % of control
T/C [2]: 90 % of control and 103 % of control
T/C [3]: 99 % of control and 115 % of control

COc1cc2cccc(O)c2cc1OC
T/C (dose: 12.5 mg/kg/injection, schedule: Q01DX009 (ip), vehicle: other): 90 % of control
T/C (dose: 25.0 mg/kg/injection, schedule: Q01DX009 (ip), vehicle: other): 106 % of control
T/C (dose: 50.0 mg/kg/injection, schedule: Q01DX009 (ip), vehicle: other): 92 % of control
T/C (dose: 200.0 mg/kg/injection, schedule: Q01DX009 (ip), vehicle: other): 90 % of control

CC(C)(C)C1=CS(=O)(=O)C1
T/C (dose: 1.56 mg/kg/injection, schedule: Q01DX001 (ip), vehicle: saline with Tween-80): 103 % of control
T/C (dose: 3.12 mg/kg/injection, schedule: Q01DX001 (ip), vehicle: saline with Tween-80): 102 % of control

CN(C)c1ccc2ccc(N(C)C)nc2c1
T/C [12]: 93 % of control
T/C [13]: 117 % of control
T/C [14]: 89 % of control and 95 % of control

S=C(S)NC1CCN(Cc2ccccc2)CC1
T/C [1]: 107 % of control
T/C [2]: 102 % of control
T/C [3]: 96 % of control

CCOC(=O)/C=C(\I)C(=O)OCC
T/C [7]: 109 % of control
T/C [8]: 100 % of control
T/C [9]: 98 % of control

O=S(=O)(O)O.[NH-]C1CCCC1[NH-].[Pt+2] (stereo not drawn)
T/C (dose: 6.25 mg/kg/injection, schedule: Q04DX002 (ip), vehicle: saline): 177 % of control and 195 % of control
T/C (dose: 12.5 mg/kg/injection, schedule: Q04DX002 (ip), vehicle: saline): 180 % of control and 202 % of control
T/C (dose: 12.5 mg/kg/injection, schedule: Q04DX002 (ip), vehicle: suspension in saline): 191 % of control
T/C [11]: 198 % of control and 194 % of control

CC(C)n1ncc2c(N)ncnc21
T/C (dose: 3.75 mg/kg/injection, schedule: Q01DX009 (ip), vehicle: saline): 100 % of control
T/C (dose: 7.5 mg/kg/injection, schedule: Q01DX009 (ip), vehicle: saline): 95 % of control
T/C (dose: 15.0 mg/kg/injection, schedule: Q01DX009 (ip), vehicle: saline): 104 % of control and 95 % of control

COc1ccc(COC(=O)Sc2nc(C)cc(C)n2)cc1
T/C [1]: 101 % of control
T/C [2]: 100 % of control
T/C [3]: 102 % of control

CCN(CC)CCCC(c1ccccc1)c1ccccc1
T/C (dose: 12.5 mg/kg/injection, schedule: Q01DX005 (ip), vehicle: saline with Tween-80): 99 % of control
T/C [15]: 94 % of control
T/C [16]: 99 % of control and 110 % of control

CC1(C)CCCC12C=NCC2 (stereo not drawn)
T/C (dose: 6.25 mg/kg/injection, schedule: Q01DX009 (ip), vehicle: saline with Tween-80): 99 % of control
T/C [12]: 95 % of control
T/C [13]: 102 % of control
T/C [14]: 101 % of control

OCC(O)C[S][Bi]([c]1ccccc1)[c]1ccccc1 (stereo not drawn)
T/C [17]: 116 % of control
T/C [18]: 100 % of control

CCC1=Nc2ccccc2C(c2ccccc2)NC1=O (stereo not drawn)
T/C [17]: 97 % of control
T/C [18]: 100 % of control
T/C [19]: 94 % of control

CN(C)c1cc(N(C)C)c2ccccc2n1
T/C [8]: 102 % of control
T/C [9]: 106 % of control
T/C [20]: 97 % of control

c1cncc(-c2cc(-c3cc(-c4cccnc4)n[nH]3)[nH]n2)c1
T/C [17]: 103 % of control
T/C [18]: 103 % of control
T/C [19]: 91 % of control

COc1cc2cnc3c4cc(OC)c(OC)cc4c(O)cc3c2cc1OC
T/C (dose: 3.12 mg/kg/injection, schedule: Q01DX005 (ip), vehicle: Klucel (hydroxypropylcellulose) (HPC)): 98 % of control
T/C (dose: 6.25 mg/kg/injection, schedule: Q01DX005 (ip), vehicle: Klucel (hydroxypropylcellulose) (HPC)): 106 % of control
T/C (dose: 12.5 mg/kg/injection, schedule: Q01DX005 (ip), vehicle: Klucel (hydroxypropylcellulose) (HPC)): 98 % of control

C=C1CC2(CCS(=O)(=O)c3ccccc32)OC1=O (stereo not drawn)
T/C (dose: 12.5 mg/kg/injection, schedule: Q04DX002 (ip), vehicle: saline with Tween-80): 105 % of control
T/C (dose: 25.0 mg/kg/injection, schedule: Q04DX002 (ip), vehicle: saline with Tween-80): 109 % of control
T/C (dose: 50.0 mg/kg/injection, schedule: Q04DX002 (ip), vehicle: saline with Tween-80): 116 % of control

O=C(Nc1ccc(S(=O)(=O)F)cc1)c1ccc2ccccc2c1O
T/C [10]: 103 % of control
T/C [20]: 94 % of control
T/C (dose: 200.0 mg/kg/injection, schedule: Q01DX009 (ip), vehicle: Klucel (hydroxypropylcellulose) (HPC)): 91 % of control

N#CC1=CN(Cc2ccc3c(c2)OCO3)C=CC1
T/C (dose: 50.0 mg/kg/injection, schedule: Q01DX005 (ip), vehicle: Klucel + Tween-80): 100 % of control
T/C (dose: 100.0 mg/kg/injection, schedule: Q01DX005 (ip), vehicle: Klucel + Tween-80): 98 % of control
T/C (dose: 200.0 mg/kg/injection, schedule: Q01DX005 (ip), vehicle: Klucel + Tween-80): 92 % of control

c1ccc(-c2nc3cc4c(cc3n3cccc23)oc2ccccc24)cc1
T/C [15]: 95 % of control
T/C [16]: 100 % of control
T/C [21]: 94 % of control

COc1cc2c(cc1OC)C(c1ccccc1[N+](=O)[O-])=NCC2
T/C [1]: 99 % of control
T/C [2]: 94 % of control
T/C [3]: 92 % of control

CCC(C)(C)c1ccc(OCCCCNC(=O)c2ccc3ccccc3c2O)c(C(C)(C)CC)c1
T/C [17]: 90 % of control
T/C [18]: 89 % of control
T/C [19]: 86 % of control

CC1(C)C=Cc2c(ccc(C(=O)Cc3ccccc3)c2O)O1
T/C [16]: 99 % of control
T/C [21]: 96 % of control
T/C (dose: 200.0 mg/kg/injection, schedule: Q01DX005 (ip), vehicle: saline with Tween-80): 93 % of control
